Measurements from patent publication US20050267020A1, “Polypeptides derived from inducible hsp70 and pharmaceutical compositions containing the same” (priority 2001, published 2005).

Columns and labels:
[1] = target: T1, HLA-A*0201/peptide complex (Homo sapiens, UniProt P04439, D140Y/D185E/D98H/E176V/E277Q/G131W/G231S/I119V/I121R/I166T/I218V/L300P/L318F/N151K/N90K/P208A/P217A/Q86G/Q94H/R138H/R169H/T345S); assay: Assessment of peptide/HLA class I complex stability (DC50); format: binding; details: half life (DC50) of the HLA-A*0201/peptide complex
T1 construct: Tap−/− cells expressing the studied HLA-class I molecule; endogenous in cells; host or cells: T2 cells (Tap-/-, HLA-A*0201)
Experimental: Assessment of Peptide/HLA class I Complex Stability. Tap−/− cells (10^6/mL) were incubated overnight with 100 μM of each peptide in serum-free RPMI 1640 medium supplemented with 100 ng/mL of […] at 37° C. Cells were then washed four times to remove free peptide, incubated with Brefeldin A (10 μg/mL) for 1 hour to block cell surface expression of newly synthesized HLA molecules, washed and incubated at 37° C. for 0, 2, 4 or 6 hours. Subsequently, cells were stained with the HLA specific mAb followed by FITC conjugated goat anti mouse Ig mAb. For each time point, peptide induced HLA expression was calculated as: Mean fluorescence of peptide preincubated cells—Mean fluorescence of cells treated in similar conditions in the absence of peptide. DC50 (dissociation complex; DC) was defined as the time required for the loss of 50% of the HLA-A*0201/peptide complexes stabilized at t=0.
The affinity of each peptide was assayed experimentally by determination of the Relative Affinity: the necessary peptide dose to stabilise a reference quantity of HLA-A*0201 molecules at the surface of T2 cells; and the stability of each peptide was assayed by determination of the half-life of the peptide/HLA-A*0201 molecule complex (DC50: dissociation complex 50).

[2] = test system: MCF-7 and SAOS tumor cell lines; assay: Recognition by murine CTL of epitopes at the surface of human tumor cells, TNF-α secretion assay; format: cell-based; details: HLA-A*0201+ Hsp70+ tumor cells
Description: CTL recognition of tumoral cells is expressed as CTL secretion of TNF-α dosed in supernatant (X Axis, TNF-α ranges from 0 to 1000 pg/ml) after contact with the cells. Upper to lower bars represent the different cells and reagents in contact with CTL, respectively: 2 negative controls (M113, M44), SAOS, MCF-7, MCF-7 blocked with anti-class I (w6/32) antibody before mixed culture, and MCF-7 blocked with an irrelevant antibody before mixed culture.
TNF-α Secretion Assay. Transfected COS cells on day 4 or 10^5 target tumor cells were plated in 50 μL RPMI 10% FCS and when necessary incubated with 10 μM peptide for 1 hour. In blocking experiments, anti-HLA class I antibody w6/32 or an irrelevant antibody were incubated with target cells for 1 h30. 5×10^4 T cells were then added in 50 μL RPMI 10% FCS and incubated for 6 hours. Each condition was tested in quadruplicates. 50 μL of the supernatant was collected. Standard dilutions were prepared in 50 μL with final doses of TNF-α (kindly provided by I. Apfler, Bender Wien, Austria) ranging from 10^4 to 0.08 pg/mL. On both the supernatants and the standards were added 50 μL of 3×10^4 TNF-α sensitive WEHI-164c13 cells. They were incubated for 16 hours at 37° C. (23). Inhibition of cell proliferation was evaluated by the MTT colorimetric method. Briefly, 50 μL of MTT at 2.5 mg/mL (Sigma-Aldrich) was added and incubated for 4 hours at 37° C. Cells were then lyzed with 100 μL of a pH4.7 33% N,N-dimethyl formamide (Sigma-Aldrich) 20% SDS solution in water. Two hours after cells lysis, OD was measured at 550 nm on a Dynatech MR5000 spectrophotometer. TNF-α quantitation was calculated by linear interpolation with the standard dilutions.
We studied whether the over-expression of Hsp70 described in certain tumor cell lines was high enough to enable these epitopes to be presented at the surface of tumor cells. We addressed this question with our already available high-avidity murine CTLs, hypothesizing that such a high CTL avidity enables the recognition of the highest-Hsp70 expressing human tumor cells. […]

HHD mice = assay: Generation of CTL in HLA-A*0201 transgenic HHD mice (immunogenicity); format: in vivo, mouse
Experimental: Generation of CTL in HLA-transgenic mice. HLA-transgenic mice were injected subcutaneously at the base of the tail with 100 μg of peptide emulsified in incomplete Freund's adjuvant (IFA) in the presence of 140 μg of the I-A^b restricted HBVcore-derived T-helper epitope (128-140; sequence TPPAYRPPNAPIL). After 11 days, spleen cells (5×10^7 cells in 10 mL) were stimulated in vitro with peptide (10 μM). On day 6 of culture, the bulk responder populations were tested for specific cytotoxicity. Upon response, the CTL line was then weekly re-stimulated in vitro with 20×10^6 35Gy irradiated spleen cells in the presence of 1 to 0.1 μM peptide and 50 U/mL IL-2 (Proleukin, Chiron Corp.). Cytotoxicity was assayed 6 days after the last stimulation and TNF-α secretion 11-13 days after, with the addition of 50 U/mL IL-2 on day 7. HHD mice transgenic for HLA-A*0201 were used. B7B7 Kd mice and mice transgenic for HLA-A*0301 are used for the study of the HLA-B*0701 and HLA-A*0301 restricted peptides respectively.

Row | Sequence | Stability (hrs) [1] [h hrs] | presentation of the epitope at the surface of Hsp70 over-expressing human tumor cells [2] | induction of specific cytotoxic T cell immune response in HHD mice (HHD mice)
1 | LMGDKSENV [HSP 380] | 4 | demonstrated | capable of generating a specific cytotoxic T cell immune response
2 | YLGYPVTNAV [HSP 134(10)] |  |  | capable of generating a specific cytotoxic T cell immune response
3 | LLLLDVAPL [HSP 391] | >6 | demonstrated | capable of generating a specific cytotoxic T cell immune response
